Test results: article PMC12040169 (PLOS Biology, 2025)

test: in vitro; settings: human, hela cells, % viability

Structure (SMILES)	viability at 28.5 h, 10 µM [%]
CSc1ncc(Cl)c(C(=O)Nc2sc3c(c2C(=O)NCc2ccco2)CCC3)n1 [CBK268991]	97.2
Cc1ccc(Cl)c(OCc2nnc(SCC(=O)O)n2N)c1 [CBK268992]	105
CC(CCc1ccccc1)NC(=O)CN1CCOCC1 (centres unmarked) [CBK268994]	93
N#C/C(=C/c1ccc(Sc2ccc(Cl)cc2)o1)c1ccc(C(=O)O)cc1 [CBK268996]	89.8
COc1ccc(OC)c(NC(=O)c2ccc3nccnc3c2)c1 [CBK268997]	106
O=C(Cn1ccc([N+](=O)[O-])n1)NCc1ccco1 [CBK268999]	89.6
Cc1ccc(S(=O)(=O)Nc2ccc(C(=O)Nc3ccc(S(=O)(=O)N4CCCCC4)cc3)cc2)cc1 [CBK269000]	101
O=S(=O)(N1CCCCCC1)N1CCN(S(=O)(=O)N2CCCCC2)CC1 [CBK269001]	114
NS(=O)(=O)c1ccc(NC(=O)CSc2ccc([N+](=O)[O-])cn2)cc1 [CBK269002]	95
CN1CCN(C(=O)c2nc(SCc3ccccc3)ncc2Cl)CC1 [CBK269003]	86.7
Cc1ccccc1NS(=O)(=O)c1cc(C(=O)Nc2ccc(S(=O)(=O)N3CCCC3)cc2)ccc1C [CBK269004]	92.9
CCOc1ccc(C(=O)Nc2ccc(-c3nc4ccccc4s3)cc2C)cc1[N+](=O)[O-] [CBK269005]	90.5
O=C(CSc1nnc(CN2CCOCC2)n1-c1ccc(Cl)cc1)N1CCc2ccccc21 [CBK269008]	97.9
CC1CN(S(=O)(=O)N2CCOCC2)CCN1S(=O)(=O)N1CCOCC1 (centres unmarked) [CBK269011]	101
Cc1c(NC(=O)CN(c2ccccc2)S(=O)(=O)N(C)C)cccc1[N+](=O)[O-] [CBK269012]	106
COc1ccccc1NC(=O)C1C2NC(=S)NC1(C)Oc1c(OC)cccc12 (centres unmarked) [CBK269013]	107
Cc1cc(Br)c(NC(=O)COc2ccc(/C=C(\C#N)C(N)=S)cc2)cc1C [CBK269014]	97.5
Cc1ccc(OC(C)C(=O)NCc2ccccc2)cc1 (centres unmarked) [CBK269016]	101
O=C(CCN1CCOCC1)NNC(=O)Nc1cccc(C(F)(F)F)c1 [CBK269017]	104
N#Cc1c(NC(=O)CSc2nc3ccccc3s2)oc(-c2ccccc2)c1-c1ccccc1 [CBK269019]	97
COC(=O)c1cccc(Cn2cc(/C=C\[N+](=O)[O-])c3ccccc32)c1 [CBK269020]	93.4

Structure (SMILES)	viability at 28.5 h, 10 µM [%]
O=C(NC(=S)Nc1cccc2c(O)cccc12)c1ccc(-c2ccccc2)cc1 [CBK269022]	85.3
O=C(O)CSc1nc(Nc2ccccc2)nc(N2CCOCC2)n1 [CBK269023]	107
NCCSC1CC(=O)N(Cc2ccc(F)cc2)C1=O (centres unmarked) [CBK269025C]	101
COc1ccc(C)cc1Nc1nc(N)nc(-c2oc3ccccc3c2C)n1 [CBK269026]	107
Cc1ccc2c(C)nc(Nc3nc(CSc4nnc(C)s4)cc(=O)[nH]3)nc2c1 [CBK269027]	87.1
Cc1ccc(O)c(Nc2ncnc3ccc(Br)cc23)c1 [CBK269028C]	98.3
Cc1ccc(CCC(=O)Nc2ccc(S(N)(=O)=O)cc2)o1 [CBK269031]	99.9
O=C(c1ccc(N2CCN(C3CC(=O)N(Cc4cccs4)C3=O)CC2)cc1)c1cccnc1 (centres unmarked) [CBK269040]	98.5
Cn1c(=O)n(C)c2cc(NC(=O)CSc3nc(Nc4ccccc4)nc(N4CCOCC4)n3)ccc21 [CBK269041]	111
COc1ccc(OC)c(NC(=O)CSc2nnc(-c3cccnc3)s2)c1 [CBK269043]	78.3
COc1cc(C)c(Cl)cc1S(=O)(=O)NCCCN1CCOCC1 [CBK269044]	97.1
CCCOc1ccc(S(=O)(=O)NCCN2CCOCC2)c2ccccc12 [CBK269045]	99.1
COc1ccccc1NC(=N)Nc1nc(CSc2nc3ccccc3s2)cc(=O)[nH]1 [CBK269046]	86
NCCSC1CC(=O)N(Cc2cccs2)C1=O (centres unmarked) [CBK269047C]	92.3
Nc1ncnc2c1ncn2CCN1CCOCC1 [CBK269049]	104
CC(Oc1ccccc1)C(=O)N1CCN(C/C=C/c2ccccc2)CC1 (centres unmarked) [CBK269050]	98
O=C(Nc1ccc(N2CCN(C(=O)c3ccco3)CC2)cc1)c1cc([N+](=O)[O-])ccc1N1CCOCC1 [CBK269052]	91.6
Cc1cc(C)cc(NC(=O)C2CC(=O)N=C(NCc3ccccc3)N2)c1 (centres unmarked) [CBK269054]	87.1
O=C(c1cc2nc(-c3ccccc3)cc(-c3ccccc3)n2n1)N1CCN(C(=O)c2ccco2)CC1 [CBK269056]	99.4
COc1cc(/C=C(/C#N)c2ccc(C(=O)O)cc2)ccc1OCc1cccc([N+](=O)[O-])c1 [CBK269057]	108
CCCOc1ccc(S(=O)(=O)NCc2ccc3c(c2)OCO3)c2ccccc12 [CBK269059]	94.3

Structure (SMILES)	viability at 28.5 h, 10 µM [%]
Cc1ccc(-c2cc(=O)c3cc(OCC(=O)Nc4sc5c(c4C#N)CCCC5)ccc3o2)cc1 [CBK269062]	96.6
Cc1ccc(C)c(OCC(=O)N(Cc2nc(-c3ccccc3)no2)C2CCCCC2)c1 [CBK269067]	89.4
O=C(c1ccncc1)n1nc(NCc2ccccc2)nc1NCc1ccccc1 [CBK269069]	89.5
COc1ccc(-n2c(S)nnc2-c2cc(C(C)(C)C)n[nH]2)cc1 [CBK269071]	97.9
O=C(O)c1cc2ncc(-c3n[nH]cc3[N+](=O)[O-])cn2n1 [CBK269072]	100
Cc1cccc(C(=O)Nc2ccc(C(=O)NNC(=O)C(C)(C)C)cc2)c1 [CBK269073]	111
Cn1c(SCCC(=O)O)nnc1-c1cccnc1 [CBK269077]	108
COc1nc(N(C)C)nc(N2CC(=O)N(c3ccccc3)C2=N)n1 [CBK269079]	87.6
Cc1cc(C)c(C)c(S(=O)(=O)N(CCO)CCO)c1C [CBK269082]	90.5
CCCNC(=O)c1ccc(C)c(S(=O)(=O)Nc2ccc(C)cc2C)c1 [CBK269084]	88.8
O=C(NCc1ccccc1Cl)C1CCCN(S(=O)(=O)c2ccccc2)C1 (centres unmarked) [CBK269086]	92.8
O=C(CSc1nnc(CN2CCOCC2)n1-c1ccc(Cl)cc1)N1CCN(c2ccccc2)CC1 [CBK269088]	96.9
Cc1ccccc1-c1noc(CSc2nnc(-c3ccncc3)n2-c2ccc(F)cc2)n1 [CBK269089]	96.8
CCN1CCN(C(=O)c2ccc3nc(-c4ccccc4)c(-c4ccccc4)nc3c2)CC1 [CBK269090]	94.7
COc1ccc(C)cc1S(=O)(=O)N(CC(=O)O)c1ccc(Cl)c(Cl)c1 [CBK269095]	104
CN1CCC(N(C)C(=O)c2ccc3nccnc3c2)CC1 [CBK269096]	108
N#C/C(=C/c1cc(Cl)c(OCc2ccc([N+](=O)[O-])cc2)c(Cl)c1)c1ccc(C(=O)O)cc1 [CBK269098]	105
COC(=O)c1ccccc1NC(=O)CNC(=O)c1ccccc1Cl [CBK269113]	88.8
N#Cc1ccccc1COC(=O)c1cc(-c2ccc(/C=C/c3nc(O)c([N+](=O)[O-])c(=O)[nH]3)o2)ccc1Cl [CBK269115]	101
CC(NS(=O)(=O)c1ccc(OCC(=O)N2CCc3ccccc3C2)c(Cl)c1)c1ccccc1 (centres unmarked) [CBK269117]	92
O=C(O)CCC(=O)Nc1ccc(C(=O)N2CCCc3ccccc32)cc1 [CBK269118]	114

Structure (SMILES)	viability at 28.5 h, 10 µM [%]
O=C(CCCc1nc(-c2ccccc2Cl)no1)Nc1cccnc1 [CBK269122]	91.6
CCOc1ccc(N2C(=O)CC(N3CCN(c4ccc(C(=O)c5ccncc5)cc4)CC3)C2=O)cc1 (centres unmarked) [CBK269124]	86.5
CC(=O)Nc1ccc(S(=O)(=O)Nc2cccc(-c3cn4cccnc4n3)c2)cc1 [CBK269125]	74.9
N#Cc1c(NC(=O)CN2CCc3ccccc3C2)sc2c1CCCC2 [CBK269126]	105
Cc1ccc(C(=O)NC(=S)Nc2ccc(-c3ccc(CO)o3)cc2)cc1[N+](=O)[O-] [CBK269127]	110
COc1cc(NC(=O)c2cc([N+](=O)[O-])ccc2N2CCOCC2)ccc1-c1cc2ccccc2oc1=O [CBK269128]	84.9
O=C(O)CCC(=O)Nc1cccc(C(=O)Nc2ccc(Br)cc2)c1 [CBK269129]	94.6
CN(C)CCCNC(=O)c1cc2cc(Cl)cc(Cl)c2oc1=O [CBK269132C]	90.2
O=C(Nc1cccc(Cl)c1)C1CCC(C(=O)Nc2cccc(Cl)c2)CC1 (centres unmarked) [CBK269136]	85.8
NC(=O)c1c(NC(=O)Cn2ccc([N+](=O)[O-])n2)sc2c1CCCC2 [CBK269139]	113
CN1C(=O)c2cccc3c(S(=O)(=O)N4CCN(S(=O)(=O)c5ccc6c7c(cccc57)C(=O)N6C)CC4)ccc1c23 [CBK269140]	98.2
Cc1cc2nc(/C(C#N)=C\c3cn(CC(=O)Nc4ccc(F)cc4)c4ccccc34)[nH]c2cc1C [CBK269142]	113
Cn1c(CSCc2ccccc2F)nnc1SCC(=O)c1ccc(Br)cc1 [CBK269143]	92.3
O=C(COc1ccc(S(=O)(=O)N2CCCCC2)cc1)N1CCN(Cc2ccccc2)CC1 [CBK269144]	87.1
O=C(COc1ccccc1)n1nc(-c2ccco2)nc1NCc1cccs1 [CBK269145]	85.7
O=C(c1cccs1)n1nc(NCc2ccccc2)nc1NCc1ccccc1 [CBK269149]	107
O=S(=O)(N1CCCCCC1)N1CCN(S(=O)(=O)N2CCOCC2)CC1 [CBK269152]	100
Cc1cc(C)c(C)c(S(=O)(=O)NCCOCCO)c1C [CBK269153]	88.6

same assay, conditions: human, hela cells, % viability, bulk resorufin, single well

Structure (SMILES)	viability at 28.5 h, 10 µM [%]
O=C1NC(=O)C(CCc2ccccn2)(CCc2ccccn2)C(=O)N1c1cccc(C(F)(F)F)c1 [CBK269021]	99.8
O=C1NC(=S)N(Cc2ccccc2)C(=O)C1(CCc1ccncc1)CCc1ccncc1 [CBK269137]	106
